Test [1] has as its target T1, Tyrosinase (Agaricus bisporus) (UniProt O42713).
T1 sequence (whole entry): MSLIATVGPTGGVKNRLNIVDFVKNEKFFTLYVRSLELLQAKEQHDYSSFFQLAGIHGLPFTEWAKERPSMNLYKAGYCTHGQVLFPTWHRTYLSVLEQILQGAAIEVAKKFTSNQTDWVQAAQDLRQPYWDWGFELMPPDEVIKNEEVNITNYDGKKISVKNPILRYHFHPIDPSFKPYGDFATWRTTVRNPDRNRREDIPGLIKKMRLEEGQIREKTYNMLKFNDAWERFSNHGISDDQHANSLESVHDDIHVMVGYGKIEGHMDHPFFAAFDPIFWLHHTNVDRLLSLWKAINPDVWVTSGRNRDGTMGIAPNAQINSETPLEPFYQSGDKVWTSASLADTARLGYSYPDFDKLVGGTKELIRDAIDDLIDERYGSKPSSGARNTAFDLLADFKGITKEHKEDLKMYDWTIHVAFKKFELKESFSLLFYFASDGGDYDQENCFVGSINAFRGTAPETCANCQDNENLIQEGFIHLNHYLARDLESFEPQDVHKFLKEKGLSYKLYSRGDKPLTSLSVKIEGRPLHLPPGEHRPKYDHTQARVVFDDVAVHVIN
In words: Activity at mushroom tyrosinase assessed as decrease in absorbance using L-tyrosine as substrate by oxygen consumption assay.

The target in test [2] is T1, Tyrosinase (Agaricus bisporus). In words: Inhibition of diphenolase activity of mushroom tyrosinase using L-dopa as substrate at 1 mM by spectrophotometric assay.
Test [3] has the same target. As to the kind of experiment: Activity at mushroom tyrosinase by spectrophotometric assay in presence of hydrogen peroxide.
Test [4] shares this target. As to the kind of experiment: Activity at mushroom tyrosinase assessed as decrease in absorbance using DOMA as substrate by oxygen consumption assay.
The target is the same in test [5]. In words: Inhibition of diphenolase activity of mushroom tyrosinase using L-dopa as substrate at 0.5 mM by spectrophotometric assay.
Test [6] shares this target. As to the kind of experiment: Inhibition of diphenolase activity of mushroom tyrosinase using L-dopa as substrate at 1.5 mM by spectrophotometric assay.
Test [7] has the same target. In words: Activity at mushroom tyrosinase assessed as decrease in absorbance using L-dopa as substrate by oxygen consumption assay.
Test [8] has the same target. As to the kind of experiment: Inhibition of monophenolase activity of mushroom tyrosinase using L-tyrosine as substrate at 0.2 mM by spectrophotometric assay.
Test [9] shares this target. In words: Inhibition of monophenolase activity of mushroom tyrosinase using L-tyrosine as substrate at 0.1 mM by spectrophotometric assay.
For test [10] the target is unchanged. As to the kind of experiment: Inhibition of monophenolase activity of mushroom tyrosinase using L-tyrosine as substrate at 0.05 mM by spectrophotometric assay.
The target is the same in test [11]. As to the kind of experiment: Inhibition of diphenolase activity of mushroom tyrosinase using L-dopa as substrate at 0.1 mM by spectrophotometric assay.
Test [12] shares this target. In words: Inhibition of diphenolase activity of mushroom tyrosinase using L-dopa as substrate at 0.2 mM by spectrophotometric assay.
The target is the same in test [13]. In words: Activity at mushroom tyrosinase assessed as decrease in absorbance at 475 nm using L-dopa as substrate by spectrophotometric assay in presence of sodium periodate.
Test [14] has the same target. In words: Inhibition of diphenolase activity of mushroom tyrosinase using L-dopa as substrate at 0.05 mM by spectrophotometric assay.
For test [15] the target is unchanged. As to the kind of experiment: Inhibition of diphenolase activity of mushroom tyrosinase using L-dopa as substrate at 6 mM by spectrophotometric assay.
For test [16] the target is unchanged. In words: Inhibition of monophenolase activity of mushroom tyrosinase using L-tyrosine as substrate at 9 mM by spectrophotometric assay.
The target is the same in test [17]. In words: Inhibition of monophenolase activity of mushroom tyrosinase using L-tyrosine as substrate at 6 mM by spectrophotometric assay.
For test [18] the target is unchanged. As to the kind of experiment: Inhibition of diphenolase activity of mushroom tyrosinase using L-dopa as substrate at 9 mM by spectrophotometric assay.
For test [19] the target is unchanged. As to the kind of experiment: Inhibition of monophenolase activity of mushroom tyrosinase using L-tyrosine as substrate at 3 mM by spectrophotometric assay.
Test [20] has the same target. In words: Inhibition of diphenolase activity of mushroom tyrosinase using L-dopa as substrate at 3 mM by spectrophotometric assay.
For test [21] the target is unchanged. To be noted: 0.15 mM.
Description: Inhibition of diphenolase activity of mushroom tyrosinase using L-dopa as substrate at 0.15 mM by spectrophotometric assay
For test [22] the target is unchanged. To be noted: 0.15 mM. This is another data set of the same source.
Description: Inhibition of monophenolase activity of mushroom tyrosinase using L-tyrosine as substrate at 0.15 mM by spectrophotometric assay

Structures are written as SMILES. Calls of active or inactive are those of the source. The calls are words filed in the database; no cut-off is given here.

In general, inhibition refers to the relative decrease from the control value, in per cent. A lower inhibition goes with a weak effect.

On to `OCCc1ccc(O)cc1`, for which the result in [1], in [3], in test [4] and in test [7] was Active. For the same compound, the inhibition stood at 18.7% in test [2], 14.3% in [5] and 18.3% in test [6].

For the compound `O=C(CCc1ccc(O)cc1)c1c(O)cc(O)cc1O`, the inhibition worked out at 48.5% in test [8]; 17.9% in test [9]; 4.2% in [10]; 46.2% in test [11]; 62.6% in test [12]; 28.3% in test [14]. Also, the result in [3] and in test [13] was Active.

`OCc1ccc(O)cc1`: the result in test [1], in [3], in test [4] and in test [7] was Active. For the same compound, the inhibition amounted to 28.4% in test [2], 15.2% in [5] and 38.9% in test [6].

Consider `O=C(O)Cc1ccccc1`, for which the inhibition in test [15] came out at 41.6%; in [16] it was 55.4%; in test [17] it was 39.4%; in test [18], 58.1%; in test [19], 19.7%; in test [20], 18.2%.

In the case of `O=C(CCc1ccc(O)cc1)c1c(O)cc(O)cc1O[C@@H]1O[C@H](CO)[C@@H](O)[C@H](O)[C@H]1O`, the inhibition is 34% in test [9]; 52.7% in test [21]; 9% in [10]; 45.3% in test [11]; 31.4% in test [14]; 47.7% in test [22]. The result in test [1], in test [3], in test [4] and in [7] was Active.
